This data set is described as follows: in vitro. The conditions noted are these: human, hela cells, % viability.

In general, viability refers to a read-out of living cells in per cent, often relative to untreated cells. For `Cc1ccc(C(=O)Nc2c(C(=O)N3CCN(Cc4ccccc4)CC3)cnn2-c2ccccc2)cc1` [CBK263053], the viability at 28.5 h, 10 µM is 91.1%.
`CC(=O)Nc1cccc(-c2nccnc2NCC(c2cccnc2)N(C)C)c1` (stereo not shown) [CBK037998]: the viability at 28.5 h, 10 µM was 95.6%.
The value for `c1ccc2cc(-c3cncc(NCc4ccncc4)n3)ccc2c1` [CBK037899] was 92.2%; that for `C=CCN1CCc2cc(-c3cncn3CC(=O)NC(C)(C)C)ccc21` [CBK281923] was 86.7%; that for `CSCC(CSC)OC(=O)Nc1ccc(Cl)cc1` [CBK086154] was 93.9%.
The value for `COc1ccc(N2C(=O)CC(N3CCN(c4ccc(C(=O)c5cccnc5)cc4)CC3)C2=O)cc1` (stereo not shown) [CBK268924] was 92.7%; that for `O=C(CNC(=O)c1ccncc1)N/N=C/c1c(O)ccc2ccccc12` [CBK261378] was 77%; that for `O=C(Cc1c[nH]c2ccccc12)Nc1cncc(OC2CCNCC2)n1` [CBK028441T] was 91%.
The figure for `O=[N+]([O-])c1cc(S(=O)(=O)Nc2ccc(C(O)(C(F)(F)F)C(F)(F)F)cc2)ccc1Cl` [CBK062106] is 92.9%; for `O=C(COc1ccc2oc3c(c2c1)CCCC3)Nc1ccncc1` [CBK266227] it is 100%.
Regarding `N#Cc1sc(N)c2ccc(-c3ccncc3)nc12` [CBK019761], the viability at 28.5 h, 10 µM is 105%.
The value for `CN(C)c1nc(N2CCN(c3ccc(F)cc3)CC2)cc(C(F)(F)F)n1` [CBK007432] was 91.1%; that for `O=C(CNS(=O)(=O)c1cc(F)c(Br)cc1F)N1CCOCC1` [CBK042216] was 107%.
As to `O=C(CCc1ccc(S(=O)(=O)NC2CC2)cc1)N1CCCC1c1ccncc1` (stereo not shown) [CBK296673], the viability at 28.5 h, 10 µM is 106%.
The figure for `Cc1cc(CN2CCN(CCc3ccccc3)CC2)no1` [CBK126426] is 85.8%; for `CSc1nc(C)c(CCC(=O)N(C)Cc2c(C)nn(-c3ccccc3)c2C)c(=O)[nH]1` [CBK297925] it is 84.5%.
The value for `Cc1ccc(S(=O)(=O)NC(C)(C)CSc2nnc[nH]2)cc1` [CBK268374] was 81.5%.
With `Cc1ccc(C(C)C)c(OCC(O)CNC(C)C)c1` (stereo not shown) [CBK026604C], the viability at 28.5 h, 10 µM stood at 111%.
The value for `CCCCOc1ccc(-c2cn(CC(N)=O)cn2)cc1` [CBK009035] was 110%; that for `Fc1cccc(Sc2nnnn2-c2ccccc2)c1` [CBK002906] was 108%; that for `Cc1nn(C)c(C)c1CN(C)C(=O)CCCC(=O)O` [CBK286879] was 82.8%.
The value for `O=C(NCc1ccccc1OC1CCNC1)c1ccc(-c2cccc(C(F)(F)F)c2)o1` (stereo not shown) [CBK034151T] was 101%.
For `COCCSc1nnc(NS(=O)(=O)Cc2ccccc2)s1` [CBK267535], the viability at 28.5 h, 10 µM is 97.6%.
As to `O=C(O)C(Cc1ccccc1)N1C(=O)/C(=C/c2cccc([N+](=O)[O-])c2)SC1=S` (stereo not shown) [CBK263078], the viability at 28.5 h, 10 µM stood at 98.4%.
With `CC(Cc1ccccn1)NC(=O)c1cc(-c2ccccc2F)no1` (stereo not shown) [CBK281421], the viability at 28.5 h, 10 µM turned out to be 91.1%.
For `Cc1cc2cc(CNCCCN3CCCC3=O)c(=O)[nH]c2cc1C` [CBK282296], the viability at 28.5 h, 10 µM is 81.4%.
The value for `O=c1ccn([C@H]2C[C@@H](O)[C@@H](CO)O2)c(=O)[nH]1` [CBK201316] was 98.3%; that for `Cc1ccc(-c2nnc(COC(=O)c3c4c(nc5ccccc35)CCCC4)o2)cc1` [CBK269728] was 105%.
The value for `Cc1cc2nc(COC(=O)N3CCOCC3)[nH]c2cc1C` [CBK200144] was 107%; that for `O=C(NCCCc1ccccn1)c1ccnc2ccc(Cl)cc12` [CBK282618] was 92.4%; that for `O=C1NC(N2CCCC2)=NOc2nnc(Cl)cc21` [CBK024856] was 109%.
The value for `Cn1ccc(C(=O)NC(Cc2ccsc2)c2cccnc2)n1` (stereo not shown) [CBK285117] was 107%; that for `COc1ccc(C(=O)N2CCC3(CCCN(CCN(C)C)C3)C2)cc1OC` (stereo not shown) [CBK132873] was 95.6%.
`Cc1ccnc(NC(=O)c2ccccc2)c1` [CBK004031]: the viability at 28.5 h, 10 µM turned out to be 90.6%.
As for `CC(NC(=O)c1cccc(Oc2ccccc2)c1)c1ccncc1` (stereo not shown) [CBK270327], the viability at 28.5 h, 10 µM was 91.3%.
With `Cc1ccc(C(C)CCN2CC3CCCN3C[C@H]2C)o1` (stereo partly shown) [CBK285467], the viability at 28.5 h, 10 µM was 101%.
Turning to `Cc1c(-n2nnnc2SC(C)c2ccccc2)c(=O)n(-c2ccccc2)n1C` (stereo not shown) [CBK295651], the viability at 28.5 h, 10 µM was found to be 92.9%.
The figure for `CCOC(=O)c1c(NC(=O)CSc2nc[nH]n2)sc2c1CCCCC2` [CBK267231] is 90.8%; for `CC(C)(C)OC(=O)N1CCC[C@]2(CCC(=O)N2)[C@H]1c1ccc(F)cc1` [CBK283462] it is 86.1%; for `COc1ccc(-c2cc(C(=O)N3CCC(S(C)(=O)=O)C3)cnc2-c2ccccc2)cn1` (stereo not shown) [CBK036706] it is 99.7%.
The figure for `COc1ccc2cc(C(=O)N3CCn4cncc4C3)n(C)c2c1` [CBK304362] is 98.6%.
The figure for `Cn1cc(CCNC(=O)NC2CCN(c3ncccn3)CC2)cn1` [CBK305612] is 104%.
Consider `CN1CCC(N[C@H]2CC(C)(C)[C@@H]3C[C@@](C)(O)CC[C@]23CCC(=O)N2CCOCC2)CC1` [CBK289040], for which the viability at 28.5 h, 10 µM was determined as 97.2%.
The figure for `O=C(NCCCNC(=O)c1ccccn1)c1ccc(Cl)cc1` [CBK269193] is 88.5%; for `CC(=O)Nc1ccc(F)c(NC(=O)NCC2CCOC2)c1` (stereo not shown) [CBK304388] it is 107%.
The value for `CC(C)Nc1cc(OCCCc2ccncc2)ncn1` [CBK115886] was 104%.
The value for `O=C1c2ccccc2C(=O)N1CCN1CCN(Cc2ccccc2)CC1` [CBK074813] was 110%.
Regarding `CC(=O)N1CCc2nc(NC(=O)c3cccs3)sc2C1` [CBK282680], the viability at 28.5 h, 10 µM is 74.9%.
The value for `c1ccc2c(c1)OCC(COc1nccnc1OC1CCN(CC3CC3)CC1)O2` (stereo not shown) [CBK083001T] was 96.5%.
Consider `O=C(c1cnccn1)N1CCN(CCc2ccccc2)CC1` [CBK200224], for which the viability at 28.5 h, 10 µM came to 101%.
Consider `c1cncc(COc2nccnc2OC2CCN(Cc3cccnc3)CC2)c1` [CBK083158], for which the viability at 28.5 h, 10 µM was found to be 108%.
Consider `CC[C@H]1CN(C(=O)c2cccnc2)CC[C@H]1CC(=O)NCc1ccc(F)cc1` [CBK289143], for which the viability at 28.5 h, 10 µM stood at 88.6%.
`Cc1cc(Br)ccc1NC(=O)CSc1nnc(-c2ccccc2O)n1-c1ccccc1` [CBK268086]: the viability at 28.5 h, 10 µM worked out at 90.7%.
The value for `CN(Cc1nc(-c2ccncc2)no1)S(=O)(=O)c1ccc(Br)cc1` [CBK268598] was 94.6%; that for `COc1ccccc1CN(CC(C)(C)CN)C(=O)NC1C[C@H]1c1ccccc1` (stereo partly shown) [CBK002424C] was 89.6%.
For the compound `Nc1nc(Cl)cc(Sc2ccc3ccccc3c2)n1` [CBK021630], the viability at 28.5 h, 10 µM was 97.4%.
The figure for `Cc1ccc(-c2nccnc2OCCOc2ccccc2)cc1C` [CBK106865] is 90.8%; for `Cc1nnc(CCNC(=O)c2cccc(C#N)c2)n1C` [CBK306017] it is 85.4%.

The record behind these values is publication PMC12040169 (PLOS Biology, 2025).
